We go through four molecules from patent US20120225417A1, “Methods, Compositions and Kits for the Evaluation and Preservation of Sperm” (I'Alliance Boviteq Inc., priority 2011, published 2012).

Type in all cases: biochemical
Assay [1] relates to 3′-5′ cAMP-PDE activity in bovine spermatozoa. The experiment in a line: 3′-5′ cAMP-PDE assay with family-specific PDE inhibitors in bovine spermatozoa. To be noted: for Percentage of family specific sensitive PDE activity, 3 h Egg yolk: bovine spermatozoa after 3 h in egg yolk based cryoprotectant at 18° C.; for Percentage of family specific sensitive PDE activity, 3 h Liquid semen: bovine spermatozoa after 3 h in liquid semen extender at 18° C.; for Percentage of family specific sensitive PDE activity, 3 h 4° C.: bovine spermatozoa after 3 h in seminal plasma at 4° C.; for Percentage of family specific sensitive PDE activity, 3 h 18° C.: bovine spermatozoa after 3 h in seminal plasma at 18° C.; for Percentage of family specific sensitive PDE activity, Fresh: bovine spermatozoa rapidly after ejaculation (0 h); for Percentage of total PDE activity sensitive to the inhibitor: cilostamide 10 μM, rolipram 10 μM, papaverine 400 nM (FIG. 12B); for Percentage of sensitive PDE activity, Cryo (B): cryopreserved bovine spermatozoa; for Percentage of sensitive PDE activity, Cryo (B) / Percentage of sensitive PDE activity, Fresh (A): Cil 10 μM, Rol 10 μM, Papa 400 nM; for Percentage of sensitive PDE activity, Fresh (A): freshly ejaculated bovine spermatozoa. The protocol: The semen was obtained from different Holstein bulls. The fresh ejaculated semen was kept in an insulated thermos flask, at 18° C., during transportation to the laboratory and processed within 3 hours after collection. The cryopreserved semen was obtained at the Centre d'Insémination […] du Québec (CIAQ) […]. The cryopreserved straws of semen were prepared according to CIAQ procedures. […] After cutting one end of the straw the semen was collected in a 15 ml falcon while cutting the other end. From this point fresh and cryopreserved semen were processed similarly. Approximately 50 μL of the semen was added to 5 mL of Talp-BSA medium in a 15 mL falcon tube to wash the spermatozoa. After centrifugation (280×g, 10 min, room temperature), the remaining pellet of approximately 100 μL was resuspended in Talp-BSA medium (500 μl for the fresh and 200 μl for two straws) to reach a concentration of 1×10^6 cells/10 μL. The samples were then vortex-agitated for 30 sec and kept on the ice until ready to run the assay. The concentration of sperm cells was measured according to hemacytometer method. The cAMP enzymatic assay (PDE assay) was conducted as previously described ([…]. et al., (2006). […] J. et al., (1979). Adv Cyclic Nucleotide Res 10, 69-92) with minor modifications. […] Measurements were also performed in the presence of PDE inhibitors: […] Cilostamide and Rolipram were purchased from Biomol. […] Each PDE assay was performed in triplicate for each experiment and each experiment was repeated at least three times. As described ([…]. et al., (2009). […] IBMX-sensitive PDE5 and PDE6 and IBMX-insensitive PDE9 activities are absent from these groups because cGMP is the specific substrate and then are not detected in the cAMP-PDE assay. […] J Dairy Sci 92, 3757-3765; […]., et al. (2007). Endocrinology 148, 1858-1867; Siuciak, J. A. et al., (2006). Neuropharmacology 51, 386-396).

In assay [2] the test system is 3′-5′ cAMP-PDE activity in human seminal plasma. The experiment in a line: 3′-5′ cAMP-PDE assay with family-specific PDE inhibitors in human seminal plasma. Particulars: fresh human seminal plasma; Rolipram 10 μM, Papaverine 400 nM (FIG. 19). The protocol:
A certain amount of complete ejaculate was kept to isolate spermatozoa from seminal plasma. This portion was centrifuged at 400×g during 10 minutes at room temperature to gently pull down spermatozoa. Supernatant was transferred and centrifuged again at 6 000×g at 4° C. during 20 minutes to pull down any remaining spermatozoa. Supernatant was then transferred and centrifuged at 6 000×g at 4° C. during 20 minutes to remove any remaining debris. SP samples were kept on ice until used for PDE assay and stored at -80° C. for further characterization. The cAMP enzymatic assay (PDE assay) was conducted as previously described ([…]. et al., (2006). BMC developmental biology 6, 47). […] J. et al., (1979). Adv Cyclic Nucleotide Res 10, 69-92) with minor modifications. […] Measurements were also performed in the presence of PDE inhibitors: […] Cilostamide and Rolipram were purchased from Biomol. […] Each PDE assay was performed in triplicate for each experiment and each experiment was repeated at least three times. As described ([…]. et al., (2009). […] IBMX-sensitive PDE5 and PDE6 and IBMX-insensitive PDE9 activities are absent from these groups because cGMP is the specific substrate and then are not detected in the cAMP-PDE assay. […] J Dairy Sci 92, 3757-3765; […]., et al. (2007). Endocrinology 148, 1858-1867; Siuciak, J. A. et al., (2006). Neuropharmacology 51, 386-396).

Assay [3] concerns 3′-5′ cAMP-PDE activity in bovine testis, caput, cauda and seminal vesicles homogenates. The experiment in a line: 3′-5′ cAMP-PDE assay in bovine testis, caput, cauda and seminal vesicles homogenates. Particulars: Rol 10 μM, Papa 400 nM (FIG. 3). How it is done: After thoroughly vortex-agitating for about one minute, samples were centrifuged at 10 000×g for 4 minutes at room temperature. Supernatant fluid was collected and diluted in different volumes of hypotonic buffer depending on the tissue. Testis, caput and cauda homogenates were diluted in 1 mL of hypotonic buffer while seminal vesicle homogenates were diluted in 2 mL of hypotonic buffer. Homogenates were kept on ice until subjected to PDE assay. The cAMP enzymatic assay (PDE assay) was conducted as previously described ([…]. et al., (2006). BMC developmental biology 6, 47). […] J. et al., (1979). Adv Cyclic Nucleotide Res 10, 69-92) with minor modifications. […] Measurements were also performed in the presence of PDE inhibitors: […] Cilostamide and Rolipram were purchased from Biomol. […] Each PDE assay was performed in triplicate for each experiment and each experiment was repeated at least three times. As described ([…]. et al., (2009). […] IBMX-sensitive PDE5 and PDE6 and IBMX-insensitive PDE9 activities are absent from these groups because cGMP is the specific substrate and then are not detected in the cAMP-PDE assay. […] J Dairy Sci 92, 3757-3765; […]., et al. (2007). Endocrinology 148, 1858-1867; Siuciak, J. A. et al., (2006). Neuropharmacology 51, 386-396).

The mark [4] stands for this setting: bovine spermatozoa, 1 μM cAMP, IBMX 1 mM.

In the case of `CC(C)Cn1c(=O)n(C)c(=O)c2[nH]cnc21` [IBMX, 3-isobutyl-1-methylxanthine], in assay [1], the “Percentage of family specific sensitive PDE activity, 3 h Egg yolk” value (“Percentage … 3 h Egg yolk” for short) amounted to 96%; the “Percentage of family specific sensitive PDE activity, 3 h Liquid semen” value (“Percentage … 3 h Liquid semen” below) is 96%; the “Percentage of family specific sensitive PDE activity, 3 h 4° C.” value (shortened to “Percentage … 3 h 4° C.”) came to 96%; the “Percentage of family specific sensitive PDE activity, 3 h 18° C.” value (from here on “Percentage … 3 h 18° C.”) is reported as 95%. Also, the “Percentage of family specific sensitive PDE activity, Fresh” value in assay [1] stood at 95%. Further, in assay [1] (setting [4]), the “Percentage of total PDE activity that is IBMX-insensitive (PDE8)” value turned out to be 8% and the “Percentage of total PDE activity sensitive to the inhibitor” value (from here on “Percentage … to the inhibitor”) is 92%. Also, in assay [1] (IBMX 1 mM), the “Percentage of sensitive PDE activity, Cryo (B)” value (from here on “Percentage … (B)”) was 96% and the “Percentage of sensitive PDE activity, Fresh (A)” value (“Percentage … (A)” for short) is listed as 94%.

On to `COc1ccc(C2CNC(=O)C2)cc1OC1CCCC1` (stereo not shown) [Rolipram], for which, in assay [1], the “Percentage … 3 h Egg yolk” value came out at 18%; the “Percentage … 3 h Liquid semen” value worked out at 11%; the “Percentage … 3 h 4° C.” value stood at 12%; the “Percentage … 3 h 18° C.” value was 9%. Further, in assay [1], the “Percentage of family specific sensitive PDE activity, Fresh” value is recorded as 11%. The “Percentage … to the inhibitor” value in assay [1] (setting [4]) is given as 11%. In addition, in assay [1] (IBMX 1 mM), the “Percentage … (B)” value turned out to be 10% and the “Percentage … (A)” value was determined as 12%. For the same molecule, the “Inhibitor-sensitive PDE activity in human seminal plasma (in words)” value in assay [2] is reported as “high”. Also, in assay [3], the “Inhibitor-sensitive PDE activity in bovine male reproductive tissues (in words)” value is “highly functional”.

In the case of `OCCN(CCO)c1nc(N2CCCCC2)c2nc(N(CCO)CCO)nc(N3CCCCC3)c2n1` [dipyridamol, dipyridamole], in assay [1] (freshly ejaculated bovine spermatozoa (FIG. 21)), the “Increase of the inhibited proportion of cAMP-PDE activity relative to papaverine” value is 10%.

For `CN(C(=O)CCCOc1ccc2[nH]c(=O)ccc2c1)C1CCCCC1` [Cilostamide], in assay [1], the “Percentage … 3 h Egg yolk” value worked out at 24%; the “Percentage … 3 h Liquid semen” value is reported as 7%; the “Percentage … 3 h 4° C.” value stood at 11%; the “Percentage … 3 h 18° C.” value is on record as 20%. Further, the “Percentage of family specific sensitive PDE activity, Fresh” value in assay [1] turned out to be 13%. Further, in assay [1] (setting [4]), the “Percentage … to the inhibitor” value amounted to 9%. Besides, in assay [1] (IBMX 1 mM), the “Percentage … (B)” value was 5% and the “Percentage … (A)” value is given as 14%.
